According to PMC4490784, “Compensatory induction of MYC expression by sustained CDK9 inhibition via a BRD4-dependent mechanism” (eLife, 2015):

Experiments:
Test in all cases: biochemical binding or enzymatic assay
ALK = molecular target: T1, ALK (Homo sapiens, UniProt Q9UM73); conditions: Novartis
T1 construct: purchased DiscoveRx KINOMEscan
Description: (§1) Finally, the selectivity profile of i-CDK9 toward other non-CDK kinases was also assessed using the KINOMEscan platform. […] Except for CLK4, for which no suitable assay was available, the rest of the kinases plus a selected group of others were re-examined for the concentration-dependent effect of i-CDK9 in either functional kinase assays or binding assays. […] Indeed, it has recently been reported that DYRK1A acts as a Pol II CTD Kinase at its target gene promoters ([Di Vona et al., 2015]).

CAMK2D = molecular target: T2, CAMK2D (Homo sapiens, UniProt Q13557); conditions: Novartis
T2 construct: purchased DiscoveRx KINOMEscan
Description: as §1

CLK1 = molecular target: T3, CLK1 (Homo sapiens, UniProt P49759); conditions: Invitrogen
T3 construct: purchased DiscoveRx KINOMEscan
Description: as §1

CSK = molecular target: T4, CSK (Homo sapiens, UniProt P41240); conditions: Novartis
T4 construct: purchased DiscoveRx KINOMEscan
Description: as §1

DYRK2 = molecular target: T5, DYRK2 (Homo sapiens, UniProt Q92630); conditions: Millipore
T5 construct: purchased DiscoveRx KINOMEscan
T5 sequence (Q92630 1-601): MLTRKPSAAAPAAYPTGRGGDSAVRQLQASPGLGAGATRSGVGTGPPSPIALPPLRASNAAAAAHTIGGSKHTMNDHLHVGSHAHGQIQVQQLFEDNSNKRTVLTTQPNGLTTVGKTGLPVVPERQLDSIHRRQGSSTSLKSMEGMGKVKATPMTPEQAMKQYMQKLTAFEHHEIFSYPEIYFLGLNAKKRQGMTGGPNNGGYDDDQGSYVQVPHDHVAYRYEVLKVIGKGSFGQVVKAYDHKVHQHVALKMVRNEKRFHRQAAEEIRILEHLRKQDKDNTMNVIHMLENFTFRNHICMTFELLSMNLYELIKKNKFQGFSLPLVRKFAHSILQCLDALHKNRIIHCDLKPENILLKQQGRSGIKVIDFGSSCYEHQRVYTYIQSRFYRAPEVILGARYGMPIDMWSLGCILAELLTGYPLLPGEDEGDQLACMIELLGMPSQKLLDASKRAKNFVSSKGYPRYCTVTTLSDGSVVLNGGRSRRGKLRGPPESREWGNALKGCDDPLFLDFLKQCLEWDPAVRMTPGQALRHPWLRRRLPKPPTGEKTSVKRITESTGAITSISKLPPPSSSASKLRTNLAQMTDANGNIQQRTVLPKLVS
Description: as §1

EPHB4 = molecular target: T6, EPHB4 (Homo sapiens, UniProt P54760); conditions: Novartis
T6 construct: purchased DiscoveRx KINOMEscan
T6 sequence (P54760 16-987): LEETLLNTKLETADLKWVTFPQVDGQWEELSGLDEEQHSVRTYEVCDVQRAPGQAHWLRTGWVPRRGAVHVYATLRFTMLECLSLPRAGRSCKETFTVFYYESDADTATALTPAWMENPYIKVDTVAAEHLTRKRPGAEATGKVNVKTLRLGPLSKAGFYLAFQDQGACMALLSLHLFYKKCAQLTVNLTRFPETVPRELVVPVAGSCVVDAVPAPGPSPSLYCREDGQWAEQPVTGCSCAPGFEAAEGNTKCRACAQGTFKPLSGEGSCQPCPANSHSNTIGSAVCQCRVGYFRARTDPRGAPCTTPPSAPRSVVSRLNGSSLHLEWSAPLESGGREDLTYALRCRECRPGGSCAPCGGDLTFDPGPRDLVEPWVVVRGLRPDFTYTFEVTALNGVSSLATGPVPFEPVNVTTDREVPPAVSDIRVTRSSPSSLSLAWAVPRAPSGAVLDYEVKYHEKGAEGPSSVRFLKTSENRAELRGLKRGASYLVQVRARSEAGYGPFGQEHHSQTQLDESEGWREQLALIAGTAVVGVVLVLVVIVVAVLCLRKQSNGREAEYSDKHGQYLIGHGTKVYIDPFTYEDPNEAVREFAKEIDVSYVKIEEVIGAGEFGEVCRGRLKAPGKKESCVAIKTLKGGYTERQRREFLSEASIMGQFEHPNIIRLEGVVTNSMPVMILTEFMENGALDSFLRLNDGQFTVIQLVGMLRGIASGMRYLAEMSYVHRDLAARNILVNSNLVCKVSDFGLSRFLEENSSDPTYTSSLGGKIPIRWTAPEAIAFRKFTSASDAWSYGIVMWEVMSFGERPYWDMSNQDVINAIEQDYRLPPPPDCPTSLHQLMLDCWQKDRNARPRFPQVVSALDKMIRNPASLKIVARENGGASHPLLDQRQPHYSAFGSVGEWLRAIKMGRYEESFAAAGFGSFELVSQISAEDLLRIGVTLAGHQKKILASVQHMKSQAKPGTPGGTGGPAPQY
Description: as §1

ERK1 = molecular target: T7, ERK1 (Homo sapiens, UniProt P27361); conditions: Novartis
T7 construct: purchased DiscoveRx KINOMEscan
Description: as §1

ERK2 = molecular target: T8, ERK2 (Homo sapiens, UniProt P28482); conditions: Novartis
T8 construct: purchased DiscoveRx KINOMEscan
Description: as §1

MAPKAPK5 = molecular target: T9, MAPKAPK5 (Homo sapiens, UniProt Q8IW41); conditions: Novartis
T9 construct: purchased DiscoveRx KINOMEscan
T9 sequence (Q8IW41 1-473): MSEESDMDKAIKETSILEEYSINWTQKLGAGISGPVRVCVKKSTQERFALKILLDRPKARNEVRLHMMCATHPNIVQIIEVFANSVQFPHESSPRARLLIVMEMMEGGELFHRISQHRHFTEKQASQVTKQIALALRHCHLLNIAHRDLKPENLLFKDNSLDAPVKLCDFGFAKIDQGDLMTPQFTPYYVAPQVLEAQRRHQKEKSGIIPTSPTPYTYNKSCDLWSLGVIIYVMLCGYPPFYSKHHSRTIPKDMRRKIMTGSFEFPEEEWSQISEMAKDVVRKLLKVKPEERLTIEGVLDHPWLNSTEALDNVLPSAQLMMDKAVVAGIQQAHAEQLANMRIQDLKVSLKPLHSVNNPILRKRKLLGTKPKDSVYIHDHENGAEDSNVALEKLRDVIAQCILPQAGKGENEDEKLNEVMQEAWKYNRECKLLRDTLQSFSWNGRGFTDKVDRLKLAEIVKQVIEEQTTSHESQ
Description: as §1

MET = molecular target: T10, MET (Homo sapiens, UniProt P08581); conditions: Novartis
T10 construct: purchased DiscoveRx KINOMEscan
Description: as §1

MKNK1 = molecular target: T11, MKNK1 (Homo sapiens, UniProt Q9BUB5); conditions: Novartis
T11 construct: purchased DiscoveRx KINOMEscan
Description: as §1

PCTK1 = molecular target: T12, PCTK1 (Homo sapiens, UniProt Q00536); conditions: Ambit
T12 construct: purchased DiscoveRx KINOMEscan
Description: as §1

PIM2 = molecular target: T13, PIM2 (Homo sapiens, UniProt Q9P1W9); conditions: Novartis
T13 construct: purchased DiscoveRx KINOMEscan
Description: as §1

[1] = molecular target: T14, TYK2(JH1domain-catalytic) (Homo sapiens, UniProt P29597); conditions: Novartis
T14 construct: TYK2(JH1domain-catalytic)
Description: as §1

T13 sequence (Q9P1W9 whole entry): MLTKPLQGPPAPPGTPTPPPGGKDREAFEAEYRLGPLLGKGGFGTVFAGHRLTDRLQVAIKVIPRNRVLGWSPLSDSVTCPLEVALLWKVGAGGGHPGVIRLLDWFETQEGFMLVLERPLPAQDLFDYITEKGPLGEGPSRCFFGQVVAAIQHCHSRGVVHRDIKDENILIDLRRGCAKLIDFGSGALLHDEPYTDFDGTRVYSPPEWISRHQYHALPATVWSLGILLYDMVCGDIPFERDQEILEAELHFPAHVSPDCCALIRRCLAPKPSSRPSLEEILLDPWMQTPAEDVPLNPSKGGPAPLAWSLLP
T8 sequence (P28482 whole entry): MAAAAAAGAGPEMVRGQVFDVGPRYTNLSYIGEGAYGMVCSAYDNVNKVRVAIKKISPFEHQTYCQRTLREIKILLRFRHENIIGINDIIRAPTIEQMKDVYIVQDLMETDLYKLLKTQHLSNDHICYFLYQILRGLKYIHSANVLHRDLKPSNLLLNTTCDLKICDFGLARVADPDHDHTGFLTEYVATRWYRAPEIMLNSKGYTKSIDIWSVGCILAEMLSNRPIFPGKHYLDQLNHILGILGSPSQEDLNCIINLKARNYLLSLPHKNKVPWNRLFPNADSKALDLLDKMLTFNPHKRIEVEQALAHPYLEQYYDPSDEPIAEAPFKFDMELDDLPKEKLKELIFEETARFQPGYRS
T10 sequence (P08581 25-1390): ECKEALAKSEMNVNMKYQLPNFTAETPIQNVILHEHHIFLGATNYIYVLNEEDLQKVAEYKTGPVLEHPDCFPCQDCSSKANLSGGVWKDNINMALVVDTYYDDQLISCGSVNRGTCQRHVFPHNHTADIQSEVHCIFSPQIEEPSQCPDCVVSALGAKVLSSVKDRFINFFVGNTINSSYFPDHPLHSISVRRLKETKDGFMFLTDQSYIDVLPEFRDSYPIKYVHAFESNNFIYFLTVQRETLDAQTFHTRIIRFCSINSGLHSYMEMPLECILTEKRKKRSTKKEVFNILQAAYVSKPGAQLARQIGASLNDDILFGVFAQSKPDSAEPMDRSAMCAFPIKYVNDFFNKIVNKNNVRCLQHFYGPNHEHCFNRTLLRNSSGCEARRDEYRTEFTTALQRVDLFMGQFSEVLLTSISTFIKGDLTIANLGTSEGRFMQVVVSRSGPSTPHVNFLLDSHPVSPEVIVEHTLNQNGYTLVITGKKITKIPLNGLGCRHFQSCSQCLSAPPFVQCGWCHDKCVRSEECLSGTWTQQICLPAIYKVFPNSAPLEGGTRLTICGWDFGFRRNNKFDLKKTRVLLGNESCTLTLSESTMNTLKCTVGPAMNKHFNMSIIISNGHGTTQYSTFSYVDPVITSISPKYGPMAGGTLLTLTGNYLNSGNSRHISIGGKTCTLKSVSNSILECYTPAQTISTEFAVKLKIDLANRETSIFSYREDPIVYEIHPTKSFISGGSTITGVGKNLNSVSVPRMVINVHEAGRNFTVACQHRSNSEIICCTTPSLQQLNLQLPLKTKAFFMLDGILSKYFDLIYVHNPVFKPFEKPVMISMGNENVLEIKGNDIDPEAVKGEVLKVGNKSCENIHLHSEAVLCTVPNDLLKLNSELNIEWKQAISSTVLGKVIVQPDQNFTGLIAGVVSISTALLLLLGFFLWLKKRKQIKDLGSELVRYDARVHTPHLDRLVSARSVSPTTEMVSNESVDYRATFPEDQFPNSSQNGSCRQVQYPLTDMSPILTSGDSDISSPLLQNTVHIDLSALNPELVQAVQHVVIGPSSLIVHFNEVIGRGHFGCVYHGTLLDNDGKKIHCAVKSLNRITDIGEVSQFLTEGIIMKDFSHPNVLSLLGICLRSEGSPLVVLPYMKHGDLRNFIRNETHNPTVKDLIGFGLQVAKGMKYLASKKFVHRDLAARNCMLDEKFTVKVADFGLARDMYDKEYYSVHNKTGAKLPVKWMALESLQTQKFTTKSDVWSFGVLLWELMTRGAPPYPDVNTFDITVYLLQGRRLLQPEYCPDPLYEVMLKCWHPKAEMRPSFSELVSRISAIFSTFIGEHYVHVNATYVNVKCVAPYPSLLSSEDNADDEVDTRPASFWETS
T1 sequence (Q9UM73 19-1620): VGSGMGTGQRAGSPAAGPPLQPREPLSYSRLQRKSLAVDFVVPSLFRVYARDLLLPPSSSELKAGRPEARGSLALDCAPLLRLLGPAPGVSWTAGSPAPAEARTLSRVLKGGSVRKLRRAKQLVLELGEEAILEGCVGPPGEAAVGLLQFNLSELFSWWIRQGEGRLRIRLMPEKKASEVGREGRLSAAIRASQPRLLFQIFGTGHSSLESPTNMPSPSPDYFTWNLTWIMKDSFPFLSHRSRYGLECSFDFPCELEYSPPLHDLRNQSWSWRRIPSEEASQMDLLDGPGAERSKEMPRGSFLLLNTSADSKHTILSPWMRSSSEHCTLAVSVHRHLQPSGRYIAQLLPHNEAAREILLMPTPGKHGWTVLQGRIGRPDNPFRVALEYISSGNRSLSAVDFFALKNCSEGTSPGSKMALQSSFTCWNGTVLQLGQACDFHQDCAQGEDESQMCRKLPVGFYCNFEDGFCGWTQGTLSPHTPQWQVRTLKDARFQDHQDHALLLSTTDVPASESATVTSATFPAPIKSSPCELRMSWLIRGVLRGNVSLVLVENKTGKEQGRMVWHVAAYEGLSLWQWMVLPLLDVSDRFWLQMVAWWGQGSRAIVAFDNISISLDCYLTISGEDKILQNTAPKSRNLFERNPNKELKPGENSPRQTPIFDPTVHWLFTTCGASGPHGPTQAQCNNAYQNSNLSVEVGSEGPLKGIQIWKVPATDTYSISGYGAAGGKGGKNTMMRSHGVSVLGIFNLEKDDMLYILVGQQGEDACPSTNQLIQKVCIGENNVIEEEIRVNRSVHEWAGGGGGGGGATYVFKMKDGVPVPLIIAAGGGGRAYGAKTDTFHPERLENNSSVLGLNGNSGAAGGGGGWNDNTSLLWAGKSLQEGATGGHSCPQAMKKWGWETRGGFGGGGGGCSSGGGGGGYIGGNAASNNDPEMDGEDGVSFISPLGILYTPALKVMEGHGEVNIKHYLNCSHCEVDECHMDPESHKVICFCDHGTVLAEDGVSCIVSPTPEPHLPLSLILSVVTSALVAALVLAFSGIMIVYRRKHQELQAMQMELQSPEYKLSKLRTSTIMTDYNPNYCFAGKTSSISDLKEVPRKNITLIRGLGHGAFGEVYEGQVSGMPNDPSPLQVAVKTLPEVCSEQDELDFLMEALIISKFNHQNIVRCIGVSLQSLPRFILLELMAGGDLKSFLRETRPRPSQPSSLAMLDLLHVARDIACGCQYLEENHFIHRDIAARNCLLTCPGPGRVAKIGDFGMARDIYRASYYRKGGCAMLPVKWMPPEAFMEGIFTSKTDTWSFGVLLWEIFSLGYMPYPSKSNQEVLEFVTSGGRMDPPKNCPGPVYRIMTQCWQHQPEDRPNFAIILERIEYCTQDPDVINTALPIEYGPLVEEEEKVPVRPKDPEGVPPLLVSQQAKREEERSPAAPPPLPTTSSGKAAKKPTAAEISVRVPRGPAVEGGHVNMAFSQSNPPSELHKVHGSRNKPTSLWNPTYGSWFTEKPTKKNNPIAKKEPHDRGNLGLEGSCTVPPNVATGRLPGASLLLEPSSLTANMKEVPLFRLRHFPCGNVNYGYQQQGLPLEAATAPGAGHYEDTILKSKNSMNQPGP
T3 sequence (P49759 whole entry): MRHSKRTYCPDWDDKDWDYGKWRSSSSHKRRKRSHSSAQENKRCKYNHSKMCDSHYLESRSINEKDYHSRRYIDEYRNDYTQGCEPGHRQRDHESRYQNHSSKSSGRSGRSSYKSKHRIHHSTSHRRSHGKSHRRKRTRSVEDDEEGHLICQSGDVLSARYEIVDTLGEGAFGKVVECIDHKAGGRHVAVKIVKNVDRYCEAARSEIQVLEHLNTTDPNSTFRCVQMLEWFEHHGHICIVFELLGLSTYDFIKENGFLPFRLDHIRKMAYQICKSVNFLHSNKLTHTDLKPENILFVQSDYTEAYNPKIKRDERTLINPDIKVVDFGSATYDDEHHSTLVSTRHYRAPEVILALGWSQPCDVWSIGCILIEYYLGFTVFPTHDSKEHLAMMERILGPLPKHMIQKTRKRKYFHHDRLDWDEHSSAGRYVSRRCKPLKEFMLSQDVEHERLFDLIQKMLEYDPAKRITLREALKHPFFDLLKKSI
T11 sequence (Q9BUB5 whole entry): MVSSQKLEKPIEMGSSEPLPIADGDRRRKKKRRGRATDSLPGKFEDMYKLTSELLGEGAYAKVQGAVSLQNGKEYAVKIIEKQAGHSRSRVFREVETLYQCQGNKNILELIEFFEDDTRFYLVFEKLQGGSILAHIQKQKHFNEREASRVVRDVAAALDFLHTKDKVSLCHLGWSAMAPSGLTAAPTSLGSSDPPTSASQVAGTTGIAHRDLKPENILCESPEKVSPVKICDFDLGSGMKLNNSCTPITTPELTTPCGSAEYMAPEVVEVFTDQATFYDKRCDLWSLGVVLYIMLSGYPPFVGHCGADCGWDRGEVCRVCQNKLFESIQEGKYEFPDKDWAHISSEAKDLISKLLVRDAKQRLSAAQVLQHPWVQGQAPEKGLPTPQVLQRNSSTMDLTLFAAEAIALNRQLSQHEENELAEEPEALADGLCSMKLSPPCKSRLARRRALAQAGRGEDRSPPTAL
T4 sequence (P41240 whole entry): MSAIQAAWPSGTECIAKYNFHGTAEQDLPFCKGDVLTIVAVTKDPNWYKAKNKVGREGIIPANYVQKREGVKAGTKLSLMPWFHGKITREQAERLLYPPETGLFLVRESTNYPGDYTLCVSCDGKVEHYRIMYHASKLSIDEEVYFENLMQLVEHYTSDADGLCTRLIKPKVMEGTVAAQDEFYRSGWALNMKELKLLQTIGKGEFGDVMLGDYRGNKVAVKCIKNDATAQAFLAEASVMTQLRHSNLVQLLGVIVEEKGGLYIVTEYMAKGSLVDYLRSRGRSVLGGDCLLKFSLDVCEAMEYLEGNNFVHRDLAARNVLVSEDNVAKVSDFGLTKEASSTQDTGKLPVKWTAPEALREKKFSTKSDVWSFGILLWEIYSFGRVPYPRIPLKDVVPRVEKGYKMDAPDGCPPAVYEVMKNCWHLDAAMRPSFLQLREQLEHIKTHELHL

Structure (SMILES): N[C@H]1CC[C@H](Nc2cc(-c3cccc(NCc4cccc(F)c4)n3)c(Cl)cn2)CC1 [i-CDK9, N2′-(trans-4-aminocyclohexyl)-5′-chloro-N6-(3-fluorobenzyl)-2,4′-bipyridine-2′,6-diamine]
- IC50 (ALK): > 10 µM
- IC50 (CAMK2D): 4 µM
- IC50 (CLK1): 0.525 µM
- IC50 (CSK): > 10 µM
- IC50 (DYRK2): 1.07 µM
- IC50 (EPHB4): > 10 µM
- IC50 (ERK1): > 10 µM
- IC50 (ERK2): > 10 µM
- IC50 (MAPKAPK5): > 10 µM
- IC50 (MET): > 10 µM
- IC50 (MKNK1): > 10 µM
- IC50 (PCTK1): > 0.14 µM
- IC50 (PIM2): > 10 µM
- IC50 [1]: > 10 µM
